How the values were obtained:
human CB1 [1] = target: T1, human CB1 (Homo sapiens, UniProt P21554); experiment: fluorescence-based membrane potential assay (GIRK activation) in AtT20 cells; assay type: cell-based; set-up: expressed in transfected cells; host or cells: mouse AtT20 FlpIn cells; settings: for hCB1 Emax ±SEM: normalised to 1 μM CP55,940; for hCB1 maximal response at 10 μM (footnote d): highest concentration tested, curve not fitted
human CB2 [2] = target: T2, human CB2 (Homo sapiens, UniProt P34972); experiment: as above; assay type: cell-based; set-up: expressed in transfected cells; host or cells: mouse AtT20 FlpIn cells; settings: for hCB2 Emax ±SEM: AtT20-hCB2, normalised to 1 μM CP55,940; for EC50: hCB2 EC50, AtT20-hCB2, value in brackets after pEC50
human CB1 [3] = target: T1, human CB1; experiment: competitive radioligand binding assay, displacement of [3H]CP55,940, HEK cell membranes; set-up: expressed in transfected cells; host or cells: HEK293 cells, P2 membrane preparation; settings: [3H]CP55,940 1 nM
human CB2 [4] = target: T2, human CB2; experiment: as above; set-up: expressed in transfected cells; host or cells: HEK293 cells, P2 membrane preparation; settings: [3H]CP55,940 1 nM
[5] = hCB1 EC50, AtT20-hCB1, value in brackets after pEC50
[6] = hCB1 Ki, value in brackets after pKi
[7] = hCB2 Ki, value in brackets after pKi
[8] = hCB1 pEC50 ±SEM, AtT20-hCB1, DNC = did not converge, ND = < 50% change in fluorescence at 10 μM
[9] = hCB2 pKi ±SEM, mean ± SEM of 3 to 6 independent experiments
[10] = AtT20-hCB1, DNC = did not converge, ND = < 50% change in fluorescence at 10 μM
[11] = hCB1 pKi ±SEM, mean ± SEM of 3 to 6 independent experiments

T1 sequence (P21554 whole entry): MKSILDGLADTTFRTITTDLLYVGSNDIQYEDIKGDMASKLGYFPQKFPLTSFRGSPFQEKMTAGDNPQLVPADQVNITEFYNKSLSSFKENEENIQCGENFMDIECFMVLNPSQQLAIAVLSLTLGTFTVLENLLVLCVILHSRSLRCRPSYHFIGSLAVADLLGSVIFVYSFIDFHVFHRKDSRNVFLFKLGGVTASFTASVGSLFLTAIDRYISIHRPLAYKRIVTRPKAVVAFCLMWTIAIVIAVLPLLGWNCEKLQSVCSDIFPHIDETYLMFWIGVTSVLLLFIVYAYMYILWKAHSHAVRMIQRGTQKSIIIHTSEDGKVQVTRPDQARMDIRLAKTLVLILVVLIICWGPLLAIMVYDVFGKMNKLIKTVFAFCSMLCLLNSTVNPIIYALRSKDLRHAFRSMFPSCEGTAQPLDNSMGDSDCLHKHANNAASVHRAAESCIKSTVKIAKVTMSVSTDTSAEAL
T2 sequence (P34972 whole entry): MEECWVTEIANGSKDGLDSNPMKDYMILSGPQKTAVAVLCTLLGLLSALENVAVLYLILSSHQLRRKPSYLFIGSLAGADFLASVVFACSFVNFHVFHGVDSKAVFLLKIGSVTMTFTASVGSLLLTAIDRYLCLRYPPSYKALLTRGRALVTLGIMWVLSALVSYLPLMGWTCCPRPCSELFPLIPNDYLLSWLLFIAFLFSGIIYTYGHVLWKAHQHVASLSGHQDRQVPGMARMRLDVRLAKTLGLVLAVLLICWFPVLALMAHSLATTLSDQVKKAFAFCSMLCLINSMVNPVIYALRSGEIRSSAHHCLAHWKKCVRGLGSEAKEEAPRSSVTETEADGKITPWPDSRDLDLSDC

CC(C)[C@H](NC(=O)c1cn(CCCCC#N)c2ccccc12)C(N)=O [Compound 5, (S)-N-(1-amino-3-methyl-1-oxobutan-2-yl)-1-(4-cyanobutyl)-1H-indole-3-carboxamide]
melting point: 177 to 180 °C | hCB1 Emax ±SEM (human CB1 [1]; AtT20-hCB1): 111 ± 5 % CP55,940 | EC50 (human CB1 [1]; [5]): 400 nM | hCB2 Emax ±SEM (human CB2 [2]): 100 ± 2 % CP55,940 | EC50 (human CB2 [2]): 75.9 nM | Ki (human CB1 [3]; [6]): 550 nM | Ki (human CB2 [4]; [7]): 603 nM

COC(=O)[C@@H](NC(=O)c1nn(CCCCC#N)c2ccccc12)C(C)C [Compound 6, methyl (1-(4-cyanobutyl)-1H-indazole-3-carbonyl)-L-valinate]
hCB1 Emax ±SEM (human CB1 [1]; AtT20-hCB1): 117 ± 6 % CP55,940 | EC50 (human CB1 [1]; [5]): 3.61 nM | hCB2 Emax ±SEM (human CB2 [2]): 101 ± 4 % CP55,940 | EC50 (human CB2 [2]): 2.14 nM | Ki (human CB1 [3]; [6]): 17.4 nM | Ki (human CB2 [4]; [7]): 6.46 nM

COC(=O)[C@@H](NC(=O)c1cn(CCCCF)c2ccccc12)C(C)(C)C [Compound 7, methyl (S)-2-(1-(4-fluorobutyl)-1H-indole-3-carboxamido)-3,3-dimethylbutanoate]
hCB1 Emax ±SEM (human CB1 [1]; AtT20-hCB1): 114 ± 3 % CP55,940 | EC50 (human CB1 [1]; [5]): 3.43 nM | EC50 (human CB1 [1]; [8]): 3.39 nM | hCB2 Emax ±SEM (human CB2 [2]): 110 ± 3 % CP55,940 | EC50 (human CB2 [2]): 2.87 nM | Ki (human CB1 [3]; [6]): 13.2 nM

COC(=O)[C@@H](NC(=O)c1nn(CCCCF)c2ccccc12)C(C)(C)C [Compound 8, methyl (S)-2-(1-(4-fluorobutyl)-1H-indazole-3-carboxamido)-3,3-dimethylbutanoate]
hCB1 Emax ±SEM (human CB1 [1]; AtT20-hCB1): 106 ± 3 % CP55,940 | EC50 (human CB1 [1]; [8]): 0.407 nM | hCB2 Emax ±SEM (human CB2 [2]): 103 ± 5 % CP55,940 | EC50 (human CB2 [2]): 3.28 nM | Ki (human CB1 [3]; [6]): 6.2 nM | Ki (human CB2 [4]; [7]): 0.1 nM | Ki (human CB2 [4]; [9]): 0.12 nM

CC(C)(C)[C@H](NC(=O)c1cn(CCCCC#N)c2ccccc12)C(N)=O [Compound 9, (S)-N-(1-amino-3,3-dimethyl-1-oxobutan-2-yl)-1-(4-cyanobutyl)-1H-indole-3-carboxamide]
melting point: 101 to 103 °C | hCB1 Emax ±SEM (human CB1 [1]; AtT20-hCB1): 115 ± 5 % CP55,940 | EC50 (human CB1 [1]; [5]): 10.2 nM | hCB2 Emax ±SEM (human CB2 [2]): 106 ± 6 % CP55,940 | EC50 (human CB2 [2]): 10.4 nM | Ki (human CB1 [3]; [6]): 6.8 nM | Ki (human CB2 [4]; [7]): 5.5 nM

N#CCCCCn1cc(C(=O)N[C@@H](Cc2ccccc2)C(N)=O)c2ccccc21 [Compound 10, (S)-N-(1-amino-1-oxo-3-phenylpropan-2-yl)-1-(4-cyanobutyl)-1H-indole-3-carboxamide]
melting point: 84 to 85 °C | hCB1 maximal response at 10 μM (footnote d) (human CB1 [1]; AtT20-hCB1): submaximal agonist activity | hCB1 maximal response at 10 μM (footnote d) (human CB1 [1]; AtT20-hCB1, listed as APP-4CN-BUTICA (10)): 85 ± 3^d % CP55,940 | hCB1 pEC50 ±SEM (human CB1 [1]; [10]): DNC^b | hCB2 Emax ±SEM (human CB2 [2]): 95 ± 3 % CP55,940 | EC50 (human CB2 [2]): 98.4 nM | Ki (human CB1 [3]; [6]): 3310 nM | Ki (human CB2 [4]; [7]): 776 nM

CC(C)[C@H](NC(=O)c1nn(CCCCC#N)c2ccccc12)C(N)=O [Compound 11, (S)-N-(1-amino-3-methyl-1-oxobutan-2-yl)-1-(4-cyanobutyl)-1H-indazole-3-carboxamide]
hCB1 Emax ±SEM (human CB1 [1]; AtT20-hCB1): 111 ± 5 % CP55,940 | EC50 (human CB1 [1]; [5]): 26.3 nM | hCB2 Emax ±SEM (human CB2 [2]): 103 ± 1 % CP55,940 | EC50 (human CB2 [2]): 4.97 nM | Ki (human CB1 [3]; [6]): 43.7 nM | Ki (human CB2 [4]; [7]): 24 nM

CC(C)(C)[C@H](NC(=O)c1nn(CCCCC#N)c2ccccc12)C(N)=O [Compound 12, (S)-N-(1-amino-3,3-dimethyl-1-oxobutan-2-yl)-1-(4-cyanobutyl)-1H-indazole-3-carboxamide]
melting point: 82 to 86 °C | hCB1 Emax ±SEM (human CB1 [1]; AtT20-hCB1): 109 ± 2 % CP55,940 | EC50 (human CB1 [1]; [8]): 0.331 nM | hCB2 Emax ±SEM (human CB2 [2]): 96 ± 2 % CP55,940 | EC50 (human CB2 [2]): 1.76 nM | Ki (human CB1 [3]; [6]): 8.13 nM | Ki (human CB2 [4]; [7]): 2.57 nM

N#CCCCCn1nc(C(=O)N[C@@H](Cc2ccccc2)C(N)=O)c2ccccc21 [Compound 13, (S)-N-(1-amino-1-oxo-3-phenylpropan-2-yl)-1-(4-cyanobutyl)-1H-indazole-3-carboxamide]
hCB1 maximal response at 10 μM (footnote d) (human CB1 [1]; AtT20-hCB1): 104 % CP55,940 | hCB1 maximal response at 10 μM (footnote d) (human CB1 [1]; AtT20-hCB1, listed as APP-4CN-BUTINACA (13)): 104 ± 3^d % CP55,940 | hCB1 pEC50 ±SEM (human CB1 [1]; [10]): DNC^b | hCB2 Emax ±SEM (human CB2 [2]): 107 ± 11 % CP55,940 | EC50 (human CB2 [2]): 74.1 nM | Ki (human CB1 [3]; [6]): 1100 nM | Ki (human CB1 [3]; [11]): 1070 nM | Ki (human CB2 [4]; [7]): 170 nM | Ki (human CB2 [4]; [9]): 166 nM

CC(C)[C@H](NC(=O)c1cn(CCCCC#N)c2ncccc12)C(N)=O [Compound 14, (S)-N-(1-amino-3-methyl-1-oxobutan-2-yl)-1-(4-cyanobutyl)-1H-pyrrolo[2,3-b]pyridine-3-carboxamide]
melting point: 181 to 182 °C | hCB1 maximal response at 10 μM (footnote d) (human CB1 [1]; AtT20-hCB1): 80 ± 3^d % CP55,940 | hCB1 pEC50 ±SEM (human CB1 [1]; [10]): DNC^b | hCB2 Emax ±SEM (human CB2 [2]): 87 ± 5 % CP55,940 | EC50 (human CB2 [2]): 390 nM | Ki (human CB1 [3]; [6]): 2570 nM | Ki (human CB2 [4]; [7]): 3240 nM

COC(=O)[C@@H](NC(=O)c1cn(CCCCC#N)c2ccccc12)C(C)C [Compound 17, methyl (1-(4-cyanobutyl)-1H-indole-3-carbonyl)-L-valinate]
hCB1 Emax ±SEM (human CB1 [1]; AtT20-hCB1): 105 ± 3 % CP55,940 | EC50 (human CB1 [1]; [5]): 50.8 nM | hCB2 Emax ±SEM (human CB2 [2]): 95 ± 3 % CP55,940 | EC50 (human CB2 [2]): 13.5 nM | Ki (human CB1 [3]; [6]): 159 nM | Ki (human CB2 [4]; [7]): 85.1 nM

COC(=O)[C@@H](NC(=O)c1nn(CCCCC#N)c2ccccc12)C(C)(C)C [Compound 20, methyl (S)-2-(1-(4-cyanobutyl)-1H-indazole-3-carboxamido)-3,3-dimethylbutanoate]
hCB1 Emax ±SEM (human CB1 [1]; AtT20-hCB1): 113 ± 2 % CP55,940 | EC50 (human CB1 [1]; [5]): 0.72 nM | hCB2 Emax ±SEM (human CB2 [2]): 101 ± 2 % CP55,940 | EC50 (human CB2 [2]): 3.56 nM | Ki (human CB1 [3]; [6]): 1.29 nM | Ki (human CB2 [4]; [7]): 0.295 nM

COC(=O)[C@@H](NC(=O)c1cn(CCCCC#N)c2ncccc12)C(C)C [Compound 22, methyl (1-(4-cyanobutyl)-1H-pyrrolo[2,3-b]pyridine-3-carbonyl)-L-valinate]
hCB1 Emax ±SEM (human CB1 [1]; AtT20-hCB1): 114 ± 7 % CP55,940 | EC50 (human CB1 [1]; [5]): 430 nM | hCB2 Emax ±SEM (human CB2 [2]): 95 ± 4 % CP55,940 | EC50 (human CB2 [2]): 68.3 nM | Ki (human CB1 [3]; [6]): 1510 nM | Ki (human CB2 [4]; [7]): 316 nM

COC(=O)[C@@H](NC(=O)c1cn(CCCCC#N)c2ncccc12)C(C)(C)C [Compound 23, methyl (S)-2-(1-(4-cyanobutyl)-1H-pyrrolo[2,3-b]pyridine-3-carboxamido)-3,3-dimethylbutanoate]
hCB1 Emax ±SEM (human CB1 [1]; AtT20-hCB1): 114 ± 5 % CP55,940 | EC50 (human CB1 [1]; [5]): 10.3 nM | hCB2 Emax ±SEM (human CB2 [2]): 106± 5 % CP55,940 | EC50 (human CB2 [2]): 12.6 nM | Ki (human CB1 [3]; [6]): 9.2 nM | Ki (human CB1 [3]; [11]): 9.33 nM | Ki (human CB2 [4]; [7]): 2.4 nM | Ki (human CB2 [4]; [9]): 2.45 nM

CC(C)[C@H](NC(=O)c1cn(CCCCF)c2ncccc12)C(N)=O [Compound 31, (S)-N-(1-amino-3-methyl-1-oxobutan-2-yl)-1-(4-fluorobutyl)-1H-pyrrolo[2,3-b]pyridine-3-carboxamide]
hCB1 maximal response at 10 μM (footnote d) (human CB1 [1]; AtT20-hCB1): 82 ± 4^d % CP55,940 | hCB1 pEC50 ±SEM (human CB1 [1]; [10]): DNC^b | hCB2 Emax ±SEM (human CB2 [2]): 98 ± 4 % CP55,940 | EC50 (human CB2 [2]): 137 nM | Ki (human CB1 [3]; [11]): > 10000 nM | Ki (human CB2 [4]; [7]): 1400 nM | Ki (human CB2 [4]; [9]): 1380 nM

COC(=O)[C@@H](NC(=O)c1nn(CCCCF)c2ccccc12)C(C)C [Compound 36, methyl (1-(4-fluorobutyl)-1H-indazole-3-carbonyl)-L-valinate]
hCB1 Emax ±SEM (human CB1 [1]; AtT20-hCB1): 103 ± 2 % CP55,940 | EC50 (human CB1 [1]; [5]): 3.93 nM | hCB2 Emax ±SEM (human CB2 [2]): 100 ± 2 % CP55,940 | EC50 (human CB2 [2]): 3.76 nM | Ki (human CB1 [3]; [11]): 31.6 nM | Ki (human CB2 [4]; [7]): 1.6 nM | Ki (human CB2 [4]; [9]): 1.55 nM

COC(=O)[C@H](Cc1ccccc1)NC(=O)c1nn(CCCCF)c2ccccc12 [Compound 37, methyl (1-(4-fluorobutyl)-1H-indazole-3-carbonyl)-L-phenylalaninate]
hCB1 Emax ±SEM (human CB1 [1]; AtT20-hCB1): 106 ± 3 % CP55,940 | EC50 (human CB1 [1]; [5]): 5.62 nM | hCB2 Emax ±SEM (human CB2 [2]): 101 ± 3 % CP55,940 | EC50 (human CB2 [2]): 4.65 nM | Ki (human CB1 [3]; [11]): 33.9 nM | Ki (human CB2 [4]; [7]): 0.5 nM | Ki (human CB2 [4]; [9]): 0.457 nM
